# “Also recorded” adds a separate entry of the source.
# Assays:
# [1] = system: ATDC5 cell; assay: Kinetics of ATDC5 cell growth over 13 days; assay type: cell-based, murine; settings: rhNC4 (batch PBA-1200P) 5 ug/ml or Insulin 10 ug/ml; 20,000 cells per well at Day 0; FIG. 30
# Description: FIG. 30. A bar graph of the kinetics of ATDC5 cell growth induced by rhNC4 (batch PBA-1200P) (5 ug/ml) or Insulin (10 ug/ml) relative to control over 13 days. 20,000 cells per well were seeded at Day 0 (Start) with medium changes every 48 hrs. Insulin treated cultures reached confluence on day 6 and PBA-1200P on day 9. Control cultures also reached confluence on day 9 but in contrast to cultures containing insulin or PBA-1200P ceased to undergo replication.
# [2] = system: human progenitor cells; assay: Proteoglycan synthesis in micromass cultures, 5 days; assay type: cell-based; settings: 5 day micromass; for proteoglycan synthesis / chondrogenic differentiation: dextran polysulfate 1-20 micrograms/mL, FIG. 19B; for proteoglycan synthesis (35SO4 incorporation into PGs): hyaluronan in place of PPS, FIG. 19A
# Source text: FIG. 17. Bar graphs showing the concentration dependent effects of PPS on proteoglycan synthesis by human progenitor cells in micromass cultures for 5 days. Data is presented as 35S-GAG radioactivity and as a percentage of control taken as 100%. * P<0.05 relative to control.
# FIG. 19. Bar graphs showing the concentration dependent effects of (A) Hyaluronan (Supartz™) and (B) Dextran Polysulfate on proteoglycan synthesis by human progenitor cells in micromass cultures for 5 days. Data is presented as ^35S-GAG radioactivity and as a percentage of control, taken as 100% or as DPM/ug DNA. * P<0.05 relative to control.
# The technique used was based on that described by (Denker A E, Haas A R, Nicoll S B and Tuan R S. Chondrogenic differentiation of murine C3H10T1/2 multipotential progenitor cells: I. Stimulation by bone morphogenetic protein-2 in high density micromass cultures. Differentiation (1999); 64: 67-76). Briefly murine Progenitor cells (cell lines C3H10T1/2 or ATDC5) purchased from RIKEN Cell Bank (Tsukuba, Japan) or human immunoselected Stro-1+ Progenitor cells (Mesoblast Ltd, Melbourne, Australia) Ten microlitres (10 μl) of a suspension of the progenitor cells (1×10^7 cells/ml in Ham's F12 medium+10% FBS) were applied to individual wells of a 24-well plates. After incubatation at 37° C. in a humidified atmosphere of 5% CO2/95% air for 2-3 hours, 900 μl of Ham's F12 medium (10% FBS) and 100 μl of PPS solution in the same medium were added slowly into the wells to afford final concentrations of PPS in each of 0, 0.1, 0.5, 1.0, 2.5, 5.0, 10.0, 20.0 μg/ml alone or in combination with rhNC4 (0, 0.1, 0.5, 1.0, 2.5, 5.0, 10.0, 25.0 μg/ml). Each drug concentration was repeated in triplicate. The cells were maintained in culture for up to 10 days. The medium with/without drugs was changed every 3 days but 24 hours before termination of the experiment 80 μl of 50 μCi/ml ^35S-H2SO4 was added to achieve a final ^35SO4 concentration of 5 μCi/ml. The following day, the cells in one of the plates were trypsinized with 150 μl/well of 2.5% trypsin and separated from the medium by centrifugation at 800 g for 10 minutes, washed with 500 μl of 1×PBS and stored in liquid nitrogen for RNA and/or DNA extraction and analysis. Media and supernatants were combined in one tube for each concentration of PPS used. To the tubes was added, 200 μl of 5× Papain solution [2.5 mg/ml Papain, 7.9 mg/ml L-Cysteine in Papain buffer (0.1 M NaAC, 5 mM EDTA, pH6.0)] and the solution incubated at 65° C. for 2 hours. After papain digestion, Four aliquots of 200 μl of digested solution were transferred to a 96-well plate (200 μl/well). The ^35S-GAG released by the digestion step were separated from the free ^35SO4 by adding 20 μl 5% CPC and 10 μl 1 mg/ml CSA with gentle shaking at 300 rpm RT for 20-30 min to precipitate the ^35S-GAG-CPC complexes. The precipitates were collected by filtered through glass fibre filters using a cell harvester. The filters were then air-dried and discs punched to scintillation vials. 3 ml/vial scintillation cocktail liquid was added and vortexed for 30-45 sec. The radioactivity of ^35S—SO4 incorporated the ^35S-GAG-CPC complexes was measured by scintillation counting.
# Data is presented as 35S-GAG radioactivity and as a percentage of control taken as 100%. * P<0.05 relative to control.
# Similar experiments were undertaken using Hyaluronic acid (SuperArtz (SKK, Tokyo, Japan)) and Dextran polysulfate (MW=5000) (Sigma, Sydney, Australia) in place of PPS. […] Data is presented as 35S-GAG radioactivity and as a percentage of control taken as 100% or as DPM/ug DNA. * P<0.05 relative to control.
# [3] = system: Murine ATDC5 cell line; assay: Proteoglycan biosynthesis (35S-GAG) in pellet cultures; assay type: cell-based; settings: FIG. 14; for chondrogenic effect / proteoglycan synthesis: Heparin 1.25-20 ug/mL, 6 day pellet culture
# Source text: FIG. 12. A bar graph of the concentration dependent effects of Pentosan Polysulfate (PPS), on the biosynthesis of Proteoglycans (PGs) as determined by the incorporation of radioactively labelled sulfate into the sulfated glycosaminoglycans (^35S-GAG) of PGs in 6 day pellet cultures of murine progenitor cells (ADTC-5). *=p<0.05 relative to control.
# FIG. 22. A bar graph of the concentration dependent effects of rhNC4 (batch PBA-1202P) expressed by K. lactis, in the absence (maintenance media, MM) and presence of insulin (10 micrograms/mL) (differentiation media, DM), on the biosynthesis of Proteoglycans PGs) in pellet cultures of ATDC5 cells. Data is shown as the % change relative to controls taken to be 100%.
# Murine Progenitor cells (cell lines C3H10T1/2 or ATDC5) purchased from RIKEN Cell Bank (Tsukuba, Japan) or human immunoselected Stro-1+ Progenitor cells (Mesoblast Ltd, Melbourne, Australia) were seeded in 2 ml screw-capped sterile centrifuge tubes and the total volume made-up to 1 ml with DMEM-High glucose medium containing 10% FBS. Progenitor cells were then centrifuged at 500 g for 10 min in a swing-out rotor at room temperature. The screw caps were loosened and the tubes placed in an incubator at 37° C., in a 5% CO2/95% air moist atmosphere. The pellets generally formed within 24 hours. Medium was changed daily in the first two days, then once every 2-3 days thereafter. On day 5 the medium was removed and to each tube was added 1 ml with DMEM-High glucose medium containing 10% FBS, 5.0 μCi/ml ^35S-H2SO4 and various concentrations of PPS (0, 0.1, 0.5, 1.0, 2.5, 5.0, 10.0, 20.0, μg/ml) (FIG. 12-15) or rhNC4 (0, 0.1, 0.5, 1.0, 2.0 μg/ml) (FIG. 22). Triplicate cultures were used for all concentration of drugs. The screw caps were loosened and the tubes placed in an incubator at 37° C., in a 5% CO2/95% moist air atmosphere […]. On day 6, 200 μl of stock papain solution [2.5 mg/ml papain, 7.9 mg/ml L-Cystein in papain buffer (0.1 M NaAC, 5 mM EDTA, pH6.0)] was added to each tube. The tubes were tightly capped and incubated at 65° C. for 2 hours. After papain digestion, 4 replicates of 200 μl of papain digested solution were separately transferred to a 96-well micro-titre plate (200 μl/well). The remaining solution was used for the DNA fluorometric assays which were undertaken in triplicate as described above. Biosynthesis of ^35S-GAGs was determined as described for the monolayer cultures and the results expressed as ^35-S-GAGs/μg DNA.
# Data is shown as the % of controls taken to be 100%.
# [4] = system: Primary human progenitor cells; assay: Progenitor cell proliferation, WST-1 assay; assay type: cell-based; settings: HA alone; day 3 and day 5 cultures; FIG. 20
# Description: (§1) FIG. 4. The Effects of Pentosan Polysulfate (PPS) on Human Progenitor cell Proliferation. Primary human progenitor cells were cultured in 24 well plates in growth media supplemented with PPS at the indicated concentrations. At various time intervals (day 1, 3, 6), the growth media was removed and replaced with phenol red free media containing the tetrazolium salt WST-1 for 2 hours at 37° C./5% CO2. WST-1 is cleaved by mitochondrial dehydrogenase in viable cells to produce a formazan dye that can be detected using an ELISA plate reader at a wavelength of 450 nm. Absorbance at 450 nm for each time point is shown for all concentrations of PPS.
# FIG. 20. […] At various time intervals (day 3 & 5), the growth media was removed and replaced with phenol red free media containing the tetrazolium salt WST-1 for 2 hours at 37° C./5% CO2. Absorbance at 450 nm for each time point is shown for all concentrations of PPS and HA.
# as §1, with “Primary” for “FIG. 4. The Effects of Pentosan Polysulfate (PPS) on Human Progenitor cell Proliferation. Primary”
substance,measurement,setting,value
Insulin,day on which cultures reached confluence,[1],6 days
Dextran polysulfate,proteoglycan synthesis / chondrogenic differentiation,[2],downregulate or repress differentiation
same,proteoglycan synthesis / chondrogenic differentiation,[2]; listed as Dextran Sulfate (DS),inhibited PG synthesis
same,proteoglycan synthesis / chondrogenic differentiation,[2]; listed as dextran sulfate,concentration dependent reduction in the production of proteoglycans
Heparin,chondrogenic effect / proteoglycan synthesis,[3],does not exhibit a chondrogenic effect; also recorded: failed to significantly stimulate proteoglycan synthesis
same,chondrogenic effect / proteoglycan synthesis,[3]; listed as heparin,suppressing chondrogenesis
same,proteoglycan synthesis,"[3]; Heparin 2.5 ugrams/mL, pellet culture",little activity
same,proteoglycan synthesis,[3]; Heparin at higher concentrations (above 2.5 ugrams/mL),may cause inhibition
Hyaluronan [HA],proteoglycan synthesis (35SO4 incorporation into PGs),[2],appeared to increase synthesis of proteoglycans but not strongly
same,proteoglycan synthesis (35SO4 incorporation into PGs),[2]; listed as hyaluronan (HA),low level of ^35SO4 incorporation into PGs
same,progenitor cell proliferation (WST-1),[4],absence of any significant stimulatory effect
